Laboratory results from a melting point compilation (Tetko et al.; mined from patent text by program, amines drawn as free bases though some values may be those of a salt).

| melting point | Structure (SMILES) |
| --- | --- |
| 104 to 107 °C | CCCCCCCCCCCCCCCCS(=O)(=O)Nc1cccc2ccc(O)cc12 |
| 122 °C | Clc1cc2oc3ccccc3c2nn1 |
| 342 to 345 °C | O=c1[nH]c2ncc(-c3ccc(-c4nnc[nH]4)cc3)nc2n1CC1CCOCC1 |
| 240 to 242 °C | OCc1ccc2ncc(C(=S)NCc3ccc(Cl)cc3)c(O)c2c1 |
| 55 to 57 °C | CCOC(=O)NC(=O)C(F)F |
| 193 to 196 °C | O=C(Nc1ccc2c(c1)OCC(=S)N2)C(=O)N1CCC(Cc2ccccc2)CC1 |
| 241 to 242 °C | CC(=O)c1ccc(-n2c(-c3cc(-c4ccncc4)c(N4CCOCC4)s3)nc3ccccc3c2=O)cc1 |
| 188 °C | CN1CCC(C(=O)Nc2ccc(CN(C)C3CCOCC3)cc2)=Cc2cc(-c3ccc(C(F)(F)F)cc3)ccc21 |
| 110 to 113 °C | Cc1ccc(C)c(-c2c(C)ccc(C)c2O)c1O |
| 136 to 138 °C | CC(=O)OC1CSC(Oc2ccccc2-c2c(C)noc2C)C(OC(C)=O)C1OC(C)=O (stereo not drawn) |
| 99 to 100 °C | CCOC(=O)c1cnc(NC(=O)C(Cc2ccc(F)cc2)c2ccc(S(C)(=O)=O)cc2)cn1 (stereo not drawn) |
| 114 to 118 °C | CC=CCn1c(C)c(C)c2cnnc(CCc3ccc(F)cc3F)c21 |
| 88 to 90 °C | CN(C)CCNC(=O)N1CCN(c2ccccc2)CC1 |
| 123 °C | CCN(CC(O)CCl)c1ccc2c(c1)C(=O)N(C)C2=O (stereo not drawn) |
| 92 to 94 °C | COC(=O)c1cccc([N+](=O)[O-])c1NC(=O)OC(C)(C)C |
| 170 to 182 °C | CC(CSC(=O)c1ccccc1)C(=O)N1CC(Oc2ccc(CC3Nc4cc(C(F)(F)F)c(S(N)(=O)=O)cc4S(=O)(=O)N3)cc2)CC1C(=O)O (stereo not drawn) |
| 158 to 159 °C | CC(C)N(c1ccc(O)cc1)S(=O)(=O)c1ccc(O)cc1 |
| 58 to 60 °C | CCOC(=O)CC(C)(O)c1ccc(-c2ccccc2)cc1 (stereo not drawn) |
| 124 to 127 °C | O=C(O)CCc1ccc(OCc2nc(-c3ccccc3)c(-c3ccccc3)o2)cc1 |
| 119 to 121 °C | CC(C)Cc1ccc(C(C)C(=O)NO)cc1 (stereo not drawn) |
| 224 to 225 °C | CCCCc1csc2ccc3[nH]c4c(c3c12)CNCC4 |
| 80 to 81 °C | CCOC(=O)C1(C(=O)OCC)CCNC(=O)CC1 |
| 134 to 136 °C | CCOCc1nc2c(N)nc3cc(-c4ccccc4)cnc3c2n1CCCON=C(C)C |

| melting point | Structure (SMILES) |
| --- | --- |
| 185 to 188 °C | Cn1c(CC(=O)O)cc2ccc3ccsc3c(=O)c21 |
| 187 to 189 °C | CCC1(CCOCCNC(=O)NC2CCCCC2)Nc2cnc(C)c(C)c2N1 (stereo not drawn) |
| 158 °C | COC(=O)c1cc(C(=O)c2c(C)c(N(C)C(=O)c3cccc(OC)c3)c3ccccn23)ccc1[N+](=O)[O-] |
| 141 °C | COc1cc2c(Nc3ccc(Oc4ccccc4)cc3)c(C#N)cnc2cc1OCCN1CCC(N2CCCCC2)CC1 |
| 66 to 69 °C | CCCCCCN=C1SC(=CC(=O)O)C(=O)N1CCCCCC |
| 133 to 135 °C | COC(=O)Cc1cc(Br)c(Sc2ccc(O)c(Cc3ccc(Cl)nn3)c2)c(Br)c1 |
| 96 to 97 °C | C=CCONC(=O)c1c(Cl)nn(C)c1Cl |
| 218 to 220 °C | CC1CC(=O)NN=C1c1ccc(NC(=O)c2ccccc2O)cc1 (stereo not drawn) |
| 86 to 88 °C | O=C1CCc2c1cccc2C(=O)c1ccccc1 |
| 173 to 175 °C | FC(F)(F)CNC(=S)Nc1cccc(COC(=S)NCC(F)(F)F)n1 |
| 125 °C | CCCOCCOc1ccc(OCC(O)CNCCNc2cc(=O)n(C)c(=O)n2C)cc1 (stereo not drawn) |
| 83 to 84 °C | O=C(NCCOc1ccc(CC(Oc2ccccc2)C(=O)O)cc1Br)c1ccc(-c2ccccn2)cc1 (stereo not drawn) |
| 210 to 211 °C | COC(=O)c1ccc(-c2nnc(-c3ccc(C(C)(C)C)cc3)o2)cc1 |
| 213 to 215 °C | Cc1cn(-c2cc(NC(=O)c3ccc(Cl)c(C#Cc4ccc(NC5CC5)nn4)c3)cc(C(F)(F)F)c2)cn1 |
| 50 to 60 °C | CCCCOC(=O)c1ccc(C(=O)c2ccccc2)cc1 |
| 65 to 67 °C | Cc1ccc(S(=O)(=O)Oc2cccc(C=O)c2)cc1 |
| 173 to 175 °C | COC(C)COC(=O)Nc1ccc(C2=NNC(=O)CC2C)cc1 (stereo not drawn) |
| 83.5 to 84.5 °C | Fc1ccc(-c2cnn(CCC#Cc3ccccn3)n2)cc1 |
| 135 to 137 °C | COc1cc(COc2cc(NC(C)=O)c(Cl)cc2C(=O)CCCCCl)cc(OC)c1 |
| 129 to 130 °C | COC(=O)Nc1ccc(Br)cc1I |
| 128 °C | CS(=O)(=O)c1ccc(C2=C(c3ccc(Cl)cc3)CCC2)cc1 |
| 215 to 217 °C | OC1OC(Cn2cncn2)(c2ccc(Cl)cc2)c2ccccc21 (stereo not drawn) |
| 209 to 211 °C | CCCc1nc2c(N)nc3cccnc3c2n1CC1(O)CCCCC1 |

| melting point | Structure (SMILES) |
| --- | --- |
| 152 to 154 °C | O=C(NC1(C(=O)O)CCCCC1)OCc1ccccc1 |
| 221 to 224 °C | COc1ccc(-c2csc(Nc3ccc4ccccc4c3)n2)cc1OC |
| 130 to 131 °C | COc1ccc(C(=O)C=Cc2cccc([N+](=O)[O-])c2)c(OC)c1OC |
| 155 to 158 °C | O=C(O)[C@H](CS)N(Sc1nc2cc(Cl)ccc2s1)C(=O)Cc1ccccc1 |
| 99 to 101 °C | COc1nc(OS(=O)(=O)C(F)(F)F)cc2cccnc12 |
| 192 to 195 °C | Cc1ccccc1NC(=O)C(Cl)Cl |
| 204 to 207 °C | COc1cccc2c1C=C(C(=O)O)C(C(F)(F)F)O2 (stereo not drawn) |
| 142 to 143 °C | O=C(CNc1c(C(=O)O)[nH]c2cc(F)ccc12)c1ccccc1 |
| 128 to 129 °C | CC(=O)Nc1ccc(O)cc1Cl |
| 181 to 183 °C | CSc1nc(C)nc2c1-c1ccc(Cl)cc1C(c1ccccc1)=NC2 |
| 184 to 186 °C | CCC(CC)Oc1cc(C)nc2c1[nH]c(=O)n2-c1c(C)cc(C)cc1C |
| 197 to 198 °C | CC1=C(C(=O)OC(C)(C)C)C(c2ccc(C)cc2C)C(C(=O)OC(C)(C)C)=C(C)N1 |
| 60.5 to 63.5 °C | COc1ccc(CSc2nnc(CCl)s2)cc1 |
| 173 to 174 °C | Cc1cc(N2N=CCNC2=O)cc(Cl)c1Sc1nccn1C |
| 63 to 64 °C | CN(Cc1ccco1)Cn1c(Cl)c(C#N)c(-c2cccc(Cl)c2F)c1-c1ccccc1 |
| 68 to 69 °C | CC(=O)C(CCCCCCc1ccc(O)cc1)C(C)=O |
| 204 to 207 °C | CC(=O)Oc1ccc(-c2ccc(O)cc2)cc1 |
| 174 to 175 °C | CC(C)(C)C(NC(=O)Cc1ccc(Cl)cc1)NC(=NC#N)Nc1cccnc1Cl (stereo not drawn) |
| 149 to 151 °C | CN(C)c1cccc(Cc2cc3cccc(-c4cccc(C(=O)NCC(N)=O)c4)c3s2)c1 |
| 74 to 75 °C | O=[N+]([O-])c1ccccc1Oc1ccc(OCc2ccc(F)c(F)c2)cc1 |
| 96 to 97 °C | COc1cccc(CN2Cc3cc(OC)c(OCc4ccccc4)cc3C(OC)C2)c1 (stereo not drawn) |
| 131 to 132 °C | CN(C)Cc1cc(C(=O)c2sccc2Cl)cc(C(C)(C)C)c1O |
| 109 to 111 °C | Cn1nc(Oc2ccc(N)c(N)c2)cc1C(F)(F)F |

| melting point | Structure (SMILES) |
| --- | --- |
| 178 to 180 °C | Fc1ccc(Nc2ncnc3cnc(N4CCC(N5CCNCC5)CC4)nc23)cc1Cl |
| 48 to 50 °C | C[C@@H](Oc1cc(-c2ncc(C(F)(F)F)cc2F)c(F)cc1Cl)C(=O)O |
| 201 to 204 °C | C[C@@H](NC(=O)c1csc(-c2ccc(Cl)cc2)n1)[C@](O)(Cn1cncn1)c1ccc(F)cc1F |
| 146 °C | CC(C)S(=O)(=O)c1cnc(Cl)c(Cl)c1 |
| 272 to 274 °C | CC(C)(C)c1ccc(C(=O)Nc2cn3cc(-c4cccnc4)ccc3n2)cn1 |
| 220 to 226 °C | COc1cc2c(Nc3ccc(Sc4nccn4C)c(Cl)c3)c(C#N)cnc2cc1N1CCN(C2CCN(C)CC2)CC1 |
| 122 to 123 °C | Nc1cc(N2CC(COCc3ccccc3)OC2=O)ccn1 (stereo not drawn) |
| 186 to 190 °C | CCC(Oc1ccc(C(C)(C)CC)cc1C(C)(C)CC)C(=O)Nc1cccc(C(=O)NC2=NN(c3c(Cl)cc(Cl)cc3Cl)C(=O)C2N2CCCCC2)c1 (stereo not drawn) |
| 265 to 270 °C | N#Cc1c(N2CCCSCC2)cc[nH]c1=S |
| 185 °C | CC(C)(C)OC(=O)C[C@H](NC(=O)CNC(=O)c1csc(NC(=O)NCc2ccccc2)n1)C(=O)NCc1cccnc1 |
| 115 to 116 °C | CCOC(=O)COCCn1c(=O)[nH]c2ccccc2c1=O |
| 255 to 257 °C | N#Cc1ccsc1-c1[nH]c(=O)c(-c2ccccc2)cc1C(=O)O |
| 159 to 162 °C | CCc1ccc2oc(C(=O)Nc3ccc(-c4ccc(S(=O)(=O)NC(C(=O)O)C(C)C)cc4)cc3)c(C)c2c1OC(C)C (stereo not drawn) |
| 129 to 131 °C | Clc1cc(Cl)c2cccc3c2c1N=C3NCCCCCCCCCCn1ccnc1 |
| 190 to 193 °C | NS(=O)(=O)c1ccc(-c2cnn(C=C(F)C(F)F)c(=O)c2-c2ccc(F)cc2)cc1 |
| 238 to 240 °C | Cc1ccc(-c2[nH]c3ccc(Cl)cc3c2-c2ccc(S(C)(=O)=O)cc2)cc1 |
| 123 to 124 °C | CCOC(OCC)N1C(=O)OC(C)(C)c2cc(-c3cc(F)cc(C#N)c3)ccc21 |
| 241 to 244 °C | CC(c1oc2ccccc2c(=O)c1-c1cccc(F)c1)n1nc(-c2ccc(F)c(O)c2)c2c(N)ncnc21 (stereo not drawn) |
| 71 to 72 °C | COc1cc2c(c(C(C)C)c1OC)CC(C)C(Br)=C2 (stereo not drawn) |
| 219 to 220 °C | O=C(CC12CC3CC(CC(C3)C1)C2)Nc1c(Cl)ccc2ncccc12 |
| 197 to 200 °C | N#Cc1cnn(-c2ccccn2)c1N |
| 92 to 93 °C | CCOP(=O)(/C=C/c1cn(-c2ccccc2)nc1OCc1ccc(OCc2nc(-c3ccccc3)oc2C)c(OC)c1)OCC |
| 191 to 193 °C | O=C1CNc2c(Cl)cccc2N1 |

| Structure (SMILES) | melting point |
| --- | --- |
| O=C(Nc1ccc(N(CCCl)CCCl)cc1)Nc1c2ccccc2nc2ccccc12 | 184 to 186 °C |
| CCOP(OCC)c1ccccc1P(c1cc(C(C)(C)C)c(OC)c(C(C)(C)C)c1)c1cc(C(C)(C)C)c(OC)c(C(C)(C)C)c1 | 104 to 105 °C |
| Cc1c(N(C)C)ccc(Br)c1N=C1NCCN1 | 157 to 158 °C |
| Cc1cc2c(cc1-c1c[nH]c(C=CC(=O)O)c1)C(C)(C)CCC2(C)C | 245 to 246 °C |
| Fc1ccc(Cn2c(NC3CCN(CCc4ccccc4)CC3)nc3ccc(F)cc32)cc1 | 178 °C |
| COC(=O)c1nc(OC)n2c1CN=C(c1ccccc1Cl)c1cc(Cl)ccc1-2 | 155 to 160 °C |
